From US20120121691A1, “Method for Increasing the Production of a Specific ACYL-Chain Dihydroceramide(s) for Improving the Effectiveness of Cancer Treatments” (priority 2010, published 2012)
“Also recorded” adds a separate entry of the source.

Legend:
[1] = system: LoVo colon cancer cells; assay: DIMSCAN cytotoxicity assay, LoVo; type: cell-based, human; details: fatty acid 5 micromolar
Source text: (§1) Cell culture. The pre-T acute lymphoblastic leukemia cell lines MOLT-4 and CCRF-CEM, small cell lung cancer cell line NCI-H146, non-small cell lung cancer cell line NCI-H1792, colon cancer cell lines LoVo and HT-29, and breast cancer cell line MCF-7, were purchased from American Type Culture Collection, Manassas, Va., and grown at 20%/5% and 5%/5%, respectively. COG-LL-317 and COG-LL-332 pre-T acute lymphoblastic leukemia cell lines were obtained from the TTUHSC Cancer Center Cell Repository and grown at 5%/5%. Cell line identities were verified by short tandem repeat analysis and mycoplasma testing was performed. Cell lines were maintained in RPMI-1640 medium supplemented with 10% fetal bovine serum (FBS, Invitrogen) in humidified, 37° C. incubators. For all experiments, ALL cell lines were seeded at 2. cells/mL in RPMI-1640 medium supplemented with 15% fetal bovine serum. Solid tumor cell lines were plated at 5×cells/mL in RPMI-1640 medium supplemented with 10% fetal bovine serum.
(§2) Cytotoxicity Assay. Cytoxicity is determined using the DIMSCAN assay system (R. Proffitt et al., Cytometry 24, 204-213 (1996); T. Frgala et al., Proc. AACR, 36, 303 (1995). The system employs digital imaging microscopy to quantify viable cells, which selectively accumulate fluorescein diacetate to become brightly fluorescent. The system is capable of measuring cytotoxicity over a 4-5 log dynamic range by quenching the residual fluorescence of dead and dying cells with eosin Y and quantifying the total fluorescence of viable cells using digital thresholding. Measured fluorescence is directly proportionate to the number of viable cells.
(§3) In brief, 5,000 to 25,000 cells/well depending on the cell line (5,000 for solid tumor, 25,000 for ALL cell lines) were replicate plated into 60 wells of a 96-well tissue culture plate in 0.1 cc media and allowed to attach or recover overnight. Drug(s) are then added in 0.05 cc media to the final concentrations indicated. […] Total fluorescence of viable cells is then measured by digital imaging microscopy and the signal normalized to control cells. […]

[2] = system: NCI-H146 small cell lung cancer cells; assay: DIMSCAN cytotoxicity assay, NCI-H146; type: cell-based, human; details: NCI-H146, fatty acid 5 micromolar
Source text: as §1, §2, §3

[3] = system: COG-LL-317; assay: DIMSCAN cytotoxicity assay, COG-LL-317; type: cell-based; details: COG-LL-317, sphinganine 1 μM, GT-11 0.5 μM, 48 hours
Source text: as §1
as §2, with “cells. A comparison of the total fluorescence of a drug-treated cell population to the fluorescence of a similar number of untreated cells yields a survival fraction. […]” for “cells.”
The addition of C22:0-fatty acid, but not C18:0 or C22:1 fatty acids, increased cytotoxicity (FIGS. 7A-7F). […] Cytotoxicity was measured using DIMSCAN, and data was normalized to control and plotted as survival fraction (y-axis). […]

[4] = system: pre-T acute lymphoblastic leukemia cell lines CCRF-CEM, MOLT-4, COG-LL-317 and COG-LL-332; assay: DIMSCAN cytotoxicity assay across the four pre-T ALL cell lines; type: cell-based, human; details: COG-LL-317, COG-LL-332, CCRF-CEM, 4-HPR 0-9 μM, 48 hours
Source text: as §1, with “For all experiments, ALL cell lines were seeded at 2. cells/mL in RPMI-1640 medium supplemented with 15% fetal bovine serum. Solid tumor cell lines were plated at 5×cells/mL in RPMI-1640 medium supplemented with 10% fetal bovine serum.” left out
as §2, with “cells. […]” for “cells.”

[5] = system: CCRF-CEM cells; assay: DIMSCAN cytotoxicity assay, CCRF-CEM; type: cell-based; details: 48 hours
Source text: as §1, with “For all experiments, ALL cell lines were seeded at 2. cells/mL in RPMI-1640 medium supplemented with 15% fetal bovine serum. Solid tumor cell lines were plated at 5×cells/mL in RPMI-1640 medium supplemented with 10% fetal bovine serum.” left out
as §2, with “cells. […]” for “cells.”

Compound	effect of fatty acid on fenretinide cytotoxicity [1]	effect of fatty acid on fenretinide cytotoxicity [2]	effect of fatty acid co-treatment on cytotoxicity of sphinganine with GT-11 [3]	effect of fatty acid on fenretinide (4-HPR) cytotoxicity [4]	effect of fatty acid addition on sphinganine/GT-11 cytotoxicity [5]
CCCCCCCCCCCCCCCCCCCCCC(=O)O [C22:0-fatty acid]	increased fenretinide cytotoxicity	increased fenretinide cytotoxicity	increased	enhanced; also recorded: significantly increased cytotoxicity	–
CCCCCCCC/C=C\CCCCCCCCCCCC(=O)O [C22:1-fatty acid]	–	–	not	–	did not impart any additional cytotoxicity
